Measurements from ChEMBL document CHEMBL1201861, “Genomics of Drug Sensitity in Cancer screening data, Wellcome Trust Sanger Institute”.

Tests used:
Test in all cases: cells
Conditions in all cases: Homo sapiens
[1] = test system: NCI-H526; type: functional, cell-based;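 note: growth inhibition of the human NCI-H526 cell line, measured by a cell viability assay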
Description: SANGER: Inhibition of human NCI-H526 cell growth in a cell viability assay.

[2] = test system: SW872; type: functional, cell-based;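 note: growth inhibition of SW872 cells, read out by a viability assay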
Description: SANGER: Inhibition of human SW872 cell growth in a cell viability assay.

[3] = test system: BHY; type: functional, cell-based;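 note: cell growth inhibition read out by a viability assay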
Description: SANGER: Inhibition of human BHY cell growth in a cell viability assay.

[4] = test system: P30-OHK; type: functional, cell-based;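 note: growth inhibition of the P30-OHK cell line, read out with a cell viability assay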
Description: SANGER: Inhibition of human P30-OHK cell growth in a cell viability assay.

[5] = test system: NCI-H720; type: functional, cell-based;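 note: growth inhibition of human NCI-H720 cells determined by a cell viability assay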
Description: SANGER: Inhibition of human NCI-H720 cell growth in a cell viability assay.

[6] = test system: NMC-G1; type: functional, cell-based;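 note: growth inhibition of the NMC-G1 cell line, measured with a cell viability read-out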
Description: SANGER: Inhibition of human NMC-G1 cell growth in a cell viability assay.

[7] = test system: COLO-829; type: functional, cell-based
Description: SANGER: Inhibition of human COLO-829 cell growth in a cell viability assay.

[8] = test system: CHP-212; type: functional, cell-based
Description: SANGER: Inhibition of human CHP-212 cell growth in a cell viability assay.

[9] = test system: COLO-320-HSR; type: functional, cell-based;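 note: growth inhibition of COLO-320-HSR cells, determined with a cell viability assay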
Description: SANGER: Inhibition of human COLO-320-HSR cell growth in a cell viability assay.

[10] = test system: SJSA-1; type: functional, cell-based;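 note: growth inhibition of human SJSA-1 cells, read out through a cell viability measurement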
Description: SANGER: Inhibition of human SJSA-1 cell growth in a cell viability assay.

[11] = test system: SJRH30; type: functional, cell-based;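 note: growth inhibition of human SJRH30 cells, read out with a cell viability assay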
Description: SANGER: Inhibition of human SJRH30 cell growth in a cell viability assay.

[12] = test system: MPP-89; type: functional, cell-based;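 note: growth inhibition of human MPP-89 cells, read out with a cell viability assay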
Description: SANGER: Inhibition of human MPP-89 cell growth in a cell viability assay.

[13] = test system: GI-ME-N; type: functional, cell-based;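 note: growth inhibition of human GI-ME-N cells, read out with a cell viability assay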
Description: SANGER: Inhibition of human GI-ME-N cell growth in a cell viability assay.

[14] = test system: ES8; type: functional, cell-based;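 note: growth inhibition of human ES8 cells, read out with a cell viability assay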
Description: SANGER: Inhibition of human ES8 cell growth in a cell viability assay.

[15] = test system: LB2518-MEL; type: functional, cell-based;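 note: growth inhibition of human LB2518-MEL cells, measured with a cell viability assay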
Description: SANGER: Inhibition of human LB2518-MEL cell growth in a cell viability assay.

[16] = test system: QIMR-WIL; type: functional, cell-based;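 note: growth inhibition of QIMR-WIL cells, read out with a cell viability assay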
Description: SANGER: Inhibition of human QIMR-WIL cell growth in a cell viability assay.

[17] = test system: SCC-15; type: functional, cell-based;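 note: growth inhibition of SCC-15 cells, read out with a cell viability assay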
Description: SANGER: Inhibition of human SCC-15 cell growth in a cell viability assay.

[18] = test system: NCI-H747; type: functional, cell-based;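 note: growth inhibition of human NCI-H747 cells, read out by a cell viability assay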
Description: SANGER: Inhibition of human NCI-H747 cell growth in a cell viability assay.

[19] = test system: RS4-11; type: functional, cell-based;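 note: growth inhibition of RS4-11 cells, read out by a cell viability assay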
Description: SANGER: Inhibition of human RS4-11 cell growth in a cell viability assay.

[20] = test system: ACN; type: functional, cell-based;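 note: growth inhibition of the human ACN cell line, read out via cell viability testing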
Description: SANGER: Inhibition of human ACN cell growth in a cell viability assay.

[21] = test system: HCE-4; type: functional, cell-based;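 note: cell viability assay measuring inhibition of growth in the human HCE-4 cell line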
Description: SANGER: Inhibition of human HCE-4 cell growth in a cell viability assay.

[22] = test system: SF-268; type: functional, cell-based;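 note: growth inhibition of SF-268 cells determined with a cell viability assay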
Description: SANGER: Inhibition of human SF268 cell growth in a cell viability assay.

[23] = test system: CAS-1; type: functional, cell-based;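 note: growth inhibition of CAS-1 cells, measured with a cell viability assay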
Description: SANGER: Inhibition of human CAS-1 cell growth in a cell viability assay.

[24] = test system: SNU-C2B; type: functional, cell-based;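 note: cell viability readout used to measure compound-driven suppression of SNU-C2B cell proliferation, IC50 marking half-maximal growth inhibition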
Description: SANGER: Inhibition of human SNU-C2B cell growth in a cell viability assay.

[25] = test system: K5; type: functional, cell-based
Description: SANGER: Inhibition of human K5 cell growth in a cell viability assay.

[26] = test system: NCI-H1581; type: functional, cell-based;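 note: cell growth inhibition read out by a viability assay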
Description: SANGER: Inhibition of human NCI-H1581 cell growth in a cell viability assay.

[27] = test system: HOP-62; type: functional, cell-based;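 note: cell growth inhibition determined with a viability assay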
Description: SANGER: Inhibition of human HOP-62 cell growth in a cell viability assay.

[28] = test system: NOS-1; type: functional, cell-based;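 note: growth inhibition of the human NOS-1 cell line, read out with a cell viability assay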
Description: SANGER: Inhibition of human NOS-1 cell growth in a cell viability assay.

[29] = test system: NB6; type: functional, cell-based;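 note: growth inhibition of NB6 cells, read out by a cell viability assay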
Description: SANGER: Inhibition of human NB6 cell growth in a cell viability assay.

[30] = test system: HCC1187; type: functional, cell-based;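 note: growth inhibition of HCC1187 cells, read out with a cell viability assay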
Description: SANGER: Inhibition of human HCC1187 cell growth in a cell viability assay.

[31] = test system: LAN-6; type: functional, cell-based;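 note: growth inhibition of LAN-6 cells, determined with a cell viability assay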
Description: SANGER: Inhibition of human LAN-6 cell growth in a cell viability assay.

[32] = test system: TE-1; type: functional, cell-based;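 note: growth inhibition of the human TE-1 cell line, read out with a cell viability assay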
Description: SANGER: Inhibition of human TE-1 cell growth in a cell viability assay.

[33] = test system: DK-MG; type: functional, cell-based;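 note: growth inhibition of DK-MG cells, read out with a cell viability assay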
Description: SANGER: Inhibition of human DK-MG cell growth in a cell viability assay.

[34] = test system: JVM-2; type: functional, cell-based;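 note: growth inhibition of JVM-2 cells determined by a cell viability assay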
Description: SANGER: Inhibition of human JVM-2 cell growth in a cell viability assay.

[35] = test system: NCI-H209; type: functional, cell-based;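 note: growth inhibition of human NCI-H209 cells, measured by a cell viability assay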
Description: SANGER: Inhibition of human NCI-H209 cell growth in a cell viability assay.

[36] = test system: HH; type: functional, cell-based
Description: SANGER: Inhibition of human HH cell growth in a cell viability assay.

[37] = test system: A4-Fuk; type: functional, cell-based;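 note: growth inhibition of A4-Fuk cells, read out by a cell viability assay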
Description: SANGER: Inhibition of human A4-Fuk cell growth in a cell viability assay.

[38] = test system: DJM-1; type: functional, cell-based;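 note: growth inhibition of human DJM-1 cells, read out by a cell viability assay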
Description: SANGER: Inhibition of human DJM-1 cell growth in a cell viability assay.

[39] = test system: SHP77; type: functional, cell-based, SHP-77;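 note: growth inhibition of human SHP-77 cells measured by a cell viability assay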
Description: SANGER: Inhibition of human SHP-77 cell growth in a cell viability assay.

[40] = test system: HCT-116; type: functional, cell-based
Description: SANGER: Inhibition of human HCT-116 cell growth in a cell viability assay.

[41] = test system: OVCAR-5; type: functional, cell-based;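 note: growth inhibition of human OVCAR-5 cells, read out with a cell viability assay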
Description: SANGER: Inhibition of human OVCAR-5 cell growth in a cell viability assay.

[42] = test system: SBC-5; type: functional, cell-based;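 note: cell viability assay read-out, IC50 is the concentration that inhibits growth of the cells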
Description: SANGER: Inhibition of human SBC-5 cell growth in a cell viability assay.

[43] = test system: ESS-1; type: functional, cell-based;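 note: growth inhibition of human ESS-1 cells, read out by a cell viability assay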
Description: SANGER: Inhibition of human ESS-1 cell growth in a cell viability assay.

[44] = test system: HAL-01; type: functional, cell-based;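 note: growth inhibition of human HAL-01 cells, read out with a cell viability assay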
Description: SANGER: Inhibition of human HAL-01 cell growth in a cell viability assay.

[45] = test system: MFH-ino; type: functional, cell-based;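 note: growth inhibition of human MFH-ino cells, read out by a cell viability assay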
Description: SANGER: Inhibition of human MFH-ino cell growth in a cell viability assay.

[46] = test system: LS-123; type: functional, cell-based
Description: SANGER: Inhibition of human LS-123 cell growth in a cell viability assay.

[47] = test system: EW-18; type: functional, cell-based;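 note: growth inhibition of EW-18 cells, read out by a cell viability assay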
Description: SANGER: Inhibition of human EW-18 cell growth in a cell viability assay.

[48] = test system: GCIY; type: functional, cell-based;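 note: growth inhibition of the human GCIY cell line, read out by a cell viability assay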
Description: SANGER: Inhibition of human GCIY cell growth in a cell viability assay.

[49] = test system: NKM-1; type: functional, cell-based;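 note: growth inhibition of NKM-1 cells, read out with a cell viability assay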
Description: SANGER: Inhibition of human NKM-1 cell growth in a cell viability assay.

[50] = test system: LS-411N; type: functional, cell-based
[51] = test system: Lu-65; type: functional, cell-based;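 note: growth inhibition of Lu-65 cancer cells, read out by a cell viability assay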
Description: SANGER: Inhibition of human LU-65 cell growth in a cell viability assay.

[52] = test system: LS-1034; type: functional, cell-based
Description: SANGER: Inhibition of human LS-1034 cell growth in a cell viability assay.

[53] = test system: SK-MEL-2; type: functional, cell-based;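 note: growth inhibition of human SK-MEL-2 cells measured with a cell viability assay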
Description: SANGER: Inhibition of human SK-MEL-2 cell growth in a cell viability assay.

[54] = test system: PSN1; type: functional, cell-based;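 note: suppression of growth of human PSN1 cells, read out by a cell viability assay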
Description: SANGER: Inhibition of human PSN1 cell growth in a cell viability assay.

[55] = test system: RPMI-8866; type: functional, cell-based
Description: SANGER: Inhibition of human RPMI-8866 cell growth in a cell viability assay.

[56] = test system: MDA-MB-175-VII; type: functional, cell-based
[57] = test system: UACC-257; type: functional, cell-based
Description: SANGER: Inhibition of human UACC-257 cell growth in a cell viability assay.

[58] = test system: NB10; type: functional, cell-based;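 note: growth inhibition of NB10 cells, read out by a cell viability assay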
Description: SANGER: Inhibition of human NB10 cell growth in a cell viability assay.

[59] = test system: AM-38; type: functional, cell-based;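 note: growth inhibition of AM-38 cells of human origin, read out by a cell viability assay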
Description: SANGER: Inhibition of human AM-38 cell growth in a cell viability assay.

[60] = test system: IST-SL1; type: functional, cell-based
Description: SANGER: Inhibition of human IST-SL1 cell growth in a cell viability assay.

[61] = test system: U2OS; type: functional, cell-based, U-2-OS
Description: SANGER: Inhibition of human U-2-OS cell growth in a cell viability assay.

[62] = test system: HCE-T; type: functional, cell-based
Description: SANGER: Inhibition of human HCE-T cell growth in a cell viability assay.

[63] = test system: NCI-H69; type: functional, cell-based
Description: SANGER: Inhibition of human NCI-H69 cell growth in a cell viability assay.

[64] = test system: OVCAR-4; type: functional, cell-based
Description: SANGER: Inhibition of human OVCAR-4 cell growth in a cell viability assay.

[65] = test system: EOL1; type: functional, cell-based
Description: SANGER: Inhibition of human EoL-1-cell cell growth in a cell viability assay.

CC(C)=CC[C@@H](O)C1=CC(=O)c2c(O)ccc(O)c2C1=O [SHIKONIN]
IC50 [1]: 2.64 µM
IC50 [2]: 0.367 µM
IC50 [3]: 0.564 µM
IC50 [4]: 0.22 µM
IC50 [5]: > 16 µM
IC50 [6]: 1.3 µM
IC50 [7]: 0.658 µM
IC50 [8]: 1.1 µM
IC50 [9]: 0.384 µM
IC50 [10]: 5.53 µM
IC50 [11]: 0.369 µM
IC50 [12]: 0.857 µM
IC50 [13]: 0.552 µM
IC50 [14]: 0.778 µM
IC50 [15]: 3.28 µM
IC50 [16]: 0.182 µM
IC50 [17]: 0.65 µM
IC50 [18]: 0.441 µM
IC50 [19]: 0.417 µM
IC50 [20]: 0.917 µM
IC50 [21]: 0.389 µM
IC50 [22]: 5.58 µM
IC50 [23]: 0.462 µM
IC50 [24]: > 16 µM
IC50 [25]: 0.734 µM
IC50 [26]: > 16 µM
IC50 [27]: 1.16 µM
IC50 [28]: > 16 µM
IC50 [29]: 0.454 µM
IC50 [30]: 1.02 µM
IC50 [31]: 3.22 µM
IC50 [32]: 15.8 µM
IC50 [33]: 9.82 µM
IC50 [34]: 3.87 µM
IC50 [35]: 12.3 µM
IC50 [36]: 1.12 µM
IC50 [37]: 0.25 µM
IC50 [38]: 6.39 µM
IC50 [39]: 0.446 µM
IC50 [40]: 0.386 µM
IC50 [41]: 1.12 µM
IC50 [42]: 0.215 µM
IC50 [43]: > 16 µM
IC50 [44]: 0.196 µM
IC50 [45]: 0.864 µM
IC50 [46]: 0.538 µM
IC50 [47]: 0.529 µM
IC50 [48]: 0.036 µM
IC50 [49]: 0.101 µM
IC50 [50]: 3.19 µM
IC50 [51]: > 16 µM
IC50 [52]: 2.75 µM
IC50 [53]: 6.33 µM
IC50 [54]: > 16 µM
IC50 [55]: 0.536 µM
IC50 [56]: 2.05 µM
IC50 [57]: > 16 µM
IC50 [58]: 1.34 µM
IC50 [59]: 0.0963 µM
IC50 [60]: > 16 µM
IC50 [61]: > 16 µM
IC50 [62]: 0.72 µM
IC50 [63]: 6.71 µM
IC50 [64]: 0.67 µM
IC50 [65]: 0.509 µM

C/C=C(/C)C(=O)O[C@H]1C(C)=C2[C@H]([C@@H]1OC(=O)CCCCCCC)[C@@](C)(OC(C)=O)C[C@H](OC(=O)CCC)[C@@]1(O)[C@H]2OC(=O)[C@@]1(C)O [THAPSIGARGIN]
IC50 [1]: 0.034 µM
IC50 [2]: 0.00578 µM
IC50 [3]: 0.00226 µM
IC50 [4]: 0.00208 µM
IC50 [5]: > 0.512 µM
IC50 [6]: 0.0215 µM
IC50 [7]: 0.0298 µM
IC50 [8]: 0.003 µM
IC50 [9]: 0.048 µM
IC50 [10]: 0.003 µM
IC50 [11]: 0.00884 µM
IC50 [12]: 0.02 µM
IC50 [13]: 0.0182 µM
IC50 [14]: 0.0181 µM
IC50 [15]: 0.0173 µM
IC50 [16]: > 0.512 µM
IC50 [17]: 0.00112 µM
IC50 [18]: 0.1 µM
IC50 [19]: 0.0013 µM
IC50 [20]: 0.00469 µM
IC50 [21]: 0.00425 µM
IC50 [22]: 0.00226 µM
IC50 [23]: 0.118 µM
IC50 [24]: 0.0124 µM
IC50 [25]: > 0.512 µM
IC50 [26]: 0.00055 µM
IC50 [27]: 0.000601 µM
IC50 [28]: < 0.002 µM
IC50 [29]: 0.00458 µM
IC50 [30]: 0.505 µM
IC50 [31]: > 0.512 µM
IC50 [32]: 0.022 µM
IC50 [33]: 0.0472 µM
IC50 [34]: > 0.512 µM
IC50 [35]: 0.0181 µM
IC50 [36]: 0.0959 µM
IC50 [37]: < 0.002 µM
IC50 [38]: 0.0547 µM
IC50 [39]: 0.0591 µM
IC50 [40]: 0.000943 µM
IC50 [41]: < 0.002 µM
IC50 [42]: 0.00808 µM
IC50 [43]: 0.00758 µM
IC50 [44]: 0.301 µM
IC50 [45]: 0.00132 µM
IC50 [46]: 0.00623 µM
IC50 [47]: 0.00211 µM
IC50 [48]: 0.0535 µM
IC50 [49]: 0.00612 µM
IC50 [50]: 0.0136 µM
IC50 [51]: 0.00849 µM
IC50 [52]: 0.029 µM
IC50 [53]: < 0.002 µM
IC50 [54]: < 0.002 µM
IC50 [55]: > 0.512 µM
IC50 [56]: 0.33 µM
IC50 [57]: 0.115 µM
IC50 [58]: 0.0632 µM
IC50 [59]: 0.0148 µM
IC50 [60]: 0.0242 µM
IC50 [61]: 0.0447 µM
IC50 [62]: 0.0363 µM
IC50 [63]: 0.0567 µM
IC50 [64]: 0.00293 µM
IC50 [65]: 0.0242 µM
